Data as given in publication PMC6273868, “High-Resolution α-Glucosidase Inhibition Profiling Combined with HPLC-HRMS-SPE-NMR for Identification of Antidiabetic Compounds in Eremanthus crotonoides (Asteraceae)” (Molecules, 2016).
Entries after “also recorded” stand apart in the source; their conditions may differ.

Columns and labels:
α-glucosidase [1] = test: High-resolution α-glucosidase inhibition profiling (biochromatogram) of HPLC microfractions; assay type: biochemical, Saccharomyces cerevisiae; set-up: α-glucosidase inhibitory activity of peak in biochromatogram / α-glucosidase inhibitory activity, direct readout from the biochromatogram: concentration or dose not given beside the values; settings: for α-glucosidase inhibitory activity of peak in biochromatogram: microfractionation of fraction Fr.2 on PFP column; for α-glucosidase inhibitory activity of peak in biochromatogram / α-glucosidase inhibitory activity, direct readout from the biochromatogram: relative inhibition, quantity unknown; for α-glucosidase inhibitory activity as seen in the biochromatogram of E. crotonoides extract (in words): crude defatted ethyl acetate extract, C18 column; for α-glucosidase inhibitory activity, direct readout from the biochromatogram: biochromatogram of crude defatted extract
Procedure: Thus, 0.4 mg of the extract of E. crotonoides was subjected to analytical-scale reversed-phase HPLC, and the eluate in the retention time range from 3.0 to 78.0 min was fractionated into four 96-well microplates, yielding a resolution of 4.7 data points/min (the first column of each microplate was reserved for blanks and controls). This was followed by evaporation of the HPLC eluate from all wells, reconstitution in buffer containing 10% DMSO, and assessment of the α-glucosidase inhibitory activity of all wells (final concentration of DMSO during assay = 5%). The inhibitory activities (calculated as percentage inhibition) were plotted against the retention time from the microfractionation to give the high-resolution α-glucosidase inhibition profile (biochromatogram) shown in Figure 1. The HPLC chromatogram at 254 nm is shown with the blue line (top) and the high-resolution α-glucosidase inhibition profile shown with the red line at the bottom. The high resolution of the biochromatogram allows direct correlation of HPLC peaks and peaks in the biochromatogram—thereby pinpointing peaks corresponding to compounds with α-glucosidase inhibitory activity.
(§1) Methanol and ethyl acetate used for extraction were purchased from Tedia (Fairfield, OH, USA). Formic acid was obtained from Merck (Darmstadt, Germany) and water was prepared by a deionization and 0.22-µm membrane filtration system (Milipore, Billerica, MA, USA).
Microfractionation was performed with an Agilent 1200 series instrument (Santa Clara, CA, USA) consisting of a G1316A quartenary pump, a G1322A degasser, a G1316A thermostatted column compartment, a G1315C photodiode-array detector, a G1364C fraction collector, and a G1367C high-performance auto sampler, controlled by Agilent ChemStation ver. B.03.02 software. The columns used were a Phenomenex C18(2) Luna (150 mm × 4.6 mm, 3 μm particle size, 100 Å pore size) and a Phenomenex PFP Kinetex (150 mm × 4.6 mm, 2.6 μm particle size, 100 Å pore size). For fractionation of the crude defatted ethyl acetate extract of E. crotonoides (injection: 4 μL; concentration: 100 mg/mL) the temperature was maintained at 40 °C and the flow rate at 0.5 mL/min. The solvents were a binary gradient mixture of water–acetonitrile (95:5 v/v) as eluent A and acetonitrile–water (95:5 v/v) as eluent B, both acidified with 0.1% formic acid. The following elution profile was used: 0 min, 10% B; 35 min, 26% B; 50 min, 35% B; 60 min, 40% B; 90 min, 100% B, and the eluate from 3 to 78 min was fractionated into four 96-well microplates, leading to a resolution of 4.7 data points per min. For fractionation of Fr.2 (injection: 2 μL; concentration: 33 mg/mL) the same conditions as described above were used, but with methanol and the PFP column instead of acetonitrile and the C18 column. The eluate from 8 to 30 min was fractionated into one 96-well microplate (resolution: 4.0 data points per min) using the following gradient: 0 min, 50% B; 3 min, 50% B; 34 min, 59% B; 35 min 100% B; 38 min, 100% B. The collected fractions were evaporated to dryness using a Savant SPD121P speed vacuum concentrator coupled with a RVT400 refrigerated vapor trap and an OFP-400 oil free pump (Holbrook, NY, USA). The α-glucosidase inhibitiory activity of the fractions was determined according to the previously described procedure. Briefly, the content of each well was dissolved in 100 μL of 0.1 M phosphate buffer containing 10% of DMSO and added 80 μL of the α-glucosidase solution. After incubation at 28 °C for 10 min the reaction was initiated by addition of 20 μL of PNPG (10 mM in phosphate buffer) (final volume = 200 μL and final DMSO = 5%). The cleavage product of PNPG was monitored at 405 nm for 35 min using a Multiskan FC microplate photometer (Thermo Scientific, Waltham, MA, USA) and the percentage enzyme inhibition was calculated. […]

yeast α-glucosidase = test: α-glucosidase inhibition assay, dilution series for IC50 determination (PNPG substrate); assay type: biochemical, Saccharomyces cerevisiae; settings: for IC50: isolated compounds, means ± SD of triplicate experiments
Procedure: as §1
Microfractionation was performed with an Agilent 1200 series instrument (Santa Clara, CA, USA) consisting of a G1316A quartenary pump, a G1322A degasser, a G1316A thermostatted column compartment, a G1315C photodiode-array detector, a G1364C fraction collector, and a G1367C high-performance auto sampler, controlled by Agilent ChemStation ver. B.03.02 software. The columns used were a Phenomenex C18(2) Luna (150 mm × 4.6 mm, 3 μm particle size, 100 Å pore size) and a Phenomenex PFP Kinetex (150 mm × 4.6 mm, 2.6 μm particle size, 100 Å pore size). For fractionation of the crude defatted ethyl acetate extract of E. crotonoides (injection: 4 μL; concentration: 100 mg/mL) the temperature was maintained at 40 °C and the flow rate at 0.5 mL/min. The solvents were a binary gradient mixture of water–acetonitrile (95:5 v/v) as eluent A and acetonitrile–water (95:5 v/v) as eluent B, both acidified with 0.1% formic acid. The following elution profile was used: 0 min, 10% B; 35 min, 26% B; 50 min, 35% B; 60 min, 40% B; 90 min, 100% B, and the eluate from 3 to 78 min was fractionated into four 96-well microplates, leading to a resolution of 4.7 data points per min. For fractionation of Fr.2 (injection: 2 μL; concentration: 33 mg/mL) the same conditions as described above were used, but with methanol and the PFP column instead of acetonitrile and the C18 column. The eluate from 8 to 30 min was fractionated into one 96-well microplate (resolution: 4.0 data points per min) using the following gradient: 0 min, 50% B; 3 min, 50% B; 34 min, 59% B; 35 min 100% B; 38 min, 100% B. The collected fractions were evaporated to dryness using a Savant SPD121P speed vacuum concentrator coupled with a RVT400 refrigerated vapor trap and an OFP-400 oil free pump (Holbrook, NY, USA). The α-glucosidase inhibitiory activity of the fractions was determined according to the previously described procedure. Briefly, the content of each well was dissolved in 100 μL of 0.1 M phosphate buffer containing 10% of DMSO and added 80 μL of the α-glucosidase solution. After incubation at 28 °C for 10 min the reaction was initiated by addition of 20 μL of PNPG (10 mM in phosphate buffer) (final volume = 200 μL and final DMSO = 5%). The cleavage product of PNPG was monitored at 405 nm for 35 min using a Multiskan FC microplate photometer (Thermo Scientific, Waltham, MA, USA) and the percentage enzyme inhibition was calculated. The α-glucosidase inhibition of each well was plotted at their respective retention times underneath the HPLC chromatogram to obtain a high-resolution biochromatogram.
Preparative-scale fractionation was performed using an Agilent 1100 series instrument equipped with a multiple wavelength detector, an autosampler and two preparative-scale solvent delivery pumps. The column used was a Phenomenex C18(2) Luna (250 mm × 21.2 mm, 5 μm particle size, 100 Å pore size) and the gradient method was as follows: 0 min, 20% B; 27 min, 35% B; 37 min, 40% B; 40 min, 100% B; 46 min, 100% B; 47 min, 20% B; 52 min, 20% B using a binary mixture of water–acetonitrile (95:5 v/v) as eluent A and acetonitrile–water (95:5 v/v) as eluent B, both acidified with 0.1% formic acid.

α-glucosidase [2] = target: α-glucosidase; set-up: method as in PMID 25172103; settings: known as a weak inhibitor; cited from earlier work

Row | Structure (SMILES) | α-glucosidase inhibitory activity of peak in biochromatogram (α-glucosidase [1]) [%] | IC50 (yeast α-glucosidase) [µM] | α-glucosidase inhibitory activity as seen in the biochromatogram of E. crotonoides extract (in words) (α-glucosidase [1]) | other results
1 | O=c1c(O)c(-c2ccc(O)c(O)c2)oc2cc(O)cc(O)c12 [Compound 16, quercetin] | 82 | – | – | –
2 | COc1c(-c2ccc(O)c(O)c2)oc2cc(O)cc(O)c2c1=O [Compound 20, quercetin 3-methyl ether] | 70 | 20.4 ± 1.3 | – | –
3 | O=C(/C=C/c1ccc(O)cc1)OC[C@H]1O[C@@H](Oc2c(-c3ccc(O)cc3)oc3cc(O)cc(O)c3c2=O)[C@H](O)[C@@H](O)[C@@H]1O [Compound 17, trans-tiliroside] | 23 | > 210 | – | Inhibition at 210 μM (yeast α-glucosidase; 210 μM): 4.5%
4 | O=c1cc(-c2ccc(O)c(O)c2)oc2cc(O)cc(O)c12 [Compound 19, luteolin] | 32 | 59.6 ± 1.32 | – | –

Second part, led by results:

Row | α-glucosidase inhibitory activity of peak in biochromatogram (α-glucosidase [1]) [%] | IC50 (yeast α-glucosidase) [µM] | α-glucosidase inhibitory activity as seen in the biochromatogram of E. crotonoides extract (in words) (α-glucosidase [1]) | Structure (SMILES) | other results
5 | – | – | no or very low | O=C(/C=C/c1ccc(O)c(O)c1)O[C@H]1[C@H](O)C[C@](O)(C(=O)O)C[C@H]1OC(=O)/C=C/c1ccc(O)c(O)c1 [Compound 8, 3,4-di-O-caffeoylquinic acid] | –
6 | – | 5.93 ± 0.12 | – | CCCCOC(=O)[C@]1(O)C[C@@H](OC(=O)/C=C/c2ccc(O)c(O)c2)[C@@H](O)[C@H](OC(=O)/C=C/c2ccc(O)c(O)c2)C1 [Compound 26, 3,5-di-O-caffeoylquinic acid n-butyl ester] | α-glucosidase inhibitory activity, direct readout from the biochromatogram (α-glucosidase [1]): 92%
7 | – | – | minor | O=C(/C=C/c1ccc(O)c(O)c1)OC[C@H]1O[C@@H](Oc2c(-c3ccc(O)c(O)c3)oc3cc(O)cc(O)c3c2=O)[C@H](O)[C@@H](O)[C@@H]1O [Compound 12, quercetin-3-O-(6″-(E)-O-caffeoyl)-β-D-glucoside] | –
8 | – | 5.2 ± 0.3 | – | CCCCOC(=O)[C@]1(O)C[C@@H](O)[C@@H](OC(=O)/C=C/c2ccc(O)c(O)c2)[C@H](OC(=O)/C=C/c2ccc(O)c(O)c2)C1 [Compound 29, 4,5-di-O-caffeoylquinic acid n-butyl ester] | α-glucosidase inhibitory activity, direct readout from the biochromatogram (α-glucosidase [1]): 57%
9 | – | – | no or very low; also recorded: minor | O=C(/C=C/c1ccc(O)c(O)c1)O[C@@H]1[C@H](O)C[C@@](O)(C(=O)O)C[C@H]1OC(=O)/C=C/c1ccc(O)c(O)c1 [Compound 11, 4,5-di-O-caffeoylquinic acid] | IC50 (α-glucosidase [2]): > 100 µM
10 | – | – | no or very low | O=C(/C=C/c1ccc(O)c(O)c1)O[C@@H]1C[C@](O)(C(=O)O)C[C@@H](OC(=O)/C=C/c2ccc(O)c(O)c2)[C@H]1O [Compound 9, 3,5-di-O-caffeoylquinic acid] | –
